Experimental data reported in ChEMBL document CHEMBL1201862, “PubChem BioAssay data set” (2004).
Activity calls are given as the source filed them.

Columns and labels:
[1] = P. falciparum Dd2 growth inhibitors, dose response, SYBR Green, cherry-picked samples (AID 1159567); type: functional, cell-based
Fatty acid synthase [2] = biological target: T1, Fatty acid synthase (Homo sapiens, UniProt P49327); assay: FAS thioesterase domain inhibitors, dose response, biochemical, endpoint fluorescence intensity, uHTS hits (AID 624327); type: functional;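 further: fluorescence from hydrolysis of an O-methyl fluorescein acyl ester substrate by the enzyme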
T1 sequence (P49327 whole entry, the tested form may be a part): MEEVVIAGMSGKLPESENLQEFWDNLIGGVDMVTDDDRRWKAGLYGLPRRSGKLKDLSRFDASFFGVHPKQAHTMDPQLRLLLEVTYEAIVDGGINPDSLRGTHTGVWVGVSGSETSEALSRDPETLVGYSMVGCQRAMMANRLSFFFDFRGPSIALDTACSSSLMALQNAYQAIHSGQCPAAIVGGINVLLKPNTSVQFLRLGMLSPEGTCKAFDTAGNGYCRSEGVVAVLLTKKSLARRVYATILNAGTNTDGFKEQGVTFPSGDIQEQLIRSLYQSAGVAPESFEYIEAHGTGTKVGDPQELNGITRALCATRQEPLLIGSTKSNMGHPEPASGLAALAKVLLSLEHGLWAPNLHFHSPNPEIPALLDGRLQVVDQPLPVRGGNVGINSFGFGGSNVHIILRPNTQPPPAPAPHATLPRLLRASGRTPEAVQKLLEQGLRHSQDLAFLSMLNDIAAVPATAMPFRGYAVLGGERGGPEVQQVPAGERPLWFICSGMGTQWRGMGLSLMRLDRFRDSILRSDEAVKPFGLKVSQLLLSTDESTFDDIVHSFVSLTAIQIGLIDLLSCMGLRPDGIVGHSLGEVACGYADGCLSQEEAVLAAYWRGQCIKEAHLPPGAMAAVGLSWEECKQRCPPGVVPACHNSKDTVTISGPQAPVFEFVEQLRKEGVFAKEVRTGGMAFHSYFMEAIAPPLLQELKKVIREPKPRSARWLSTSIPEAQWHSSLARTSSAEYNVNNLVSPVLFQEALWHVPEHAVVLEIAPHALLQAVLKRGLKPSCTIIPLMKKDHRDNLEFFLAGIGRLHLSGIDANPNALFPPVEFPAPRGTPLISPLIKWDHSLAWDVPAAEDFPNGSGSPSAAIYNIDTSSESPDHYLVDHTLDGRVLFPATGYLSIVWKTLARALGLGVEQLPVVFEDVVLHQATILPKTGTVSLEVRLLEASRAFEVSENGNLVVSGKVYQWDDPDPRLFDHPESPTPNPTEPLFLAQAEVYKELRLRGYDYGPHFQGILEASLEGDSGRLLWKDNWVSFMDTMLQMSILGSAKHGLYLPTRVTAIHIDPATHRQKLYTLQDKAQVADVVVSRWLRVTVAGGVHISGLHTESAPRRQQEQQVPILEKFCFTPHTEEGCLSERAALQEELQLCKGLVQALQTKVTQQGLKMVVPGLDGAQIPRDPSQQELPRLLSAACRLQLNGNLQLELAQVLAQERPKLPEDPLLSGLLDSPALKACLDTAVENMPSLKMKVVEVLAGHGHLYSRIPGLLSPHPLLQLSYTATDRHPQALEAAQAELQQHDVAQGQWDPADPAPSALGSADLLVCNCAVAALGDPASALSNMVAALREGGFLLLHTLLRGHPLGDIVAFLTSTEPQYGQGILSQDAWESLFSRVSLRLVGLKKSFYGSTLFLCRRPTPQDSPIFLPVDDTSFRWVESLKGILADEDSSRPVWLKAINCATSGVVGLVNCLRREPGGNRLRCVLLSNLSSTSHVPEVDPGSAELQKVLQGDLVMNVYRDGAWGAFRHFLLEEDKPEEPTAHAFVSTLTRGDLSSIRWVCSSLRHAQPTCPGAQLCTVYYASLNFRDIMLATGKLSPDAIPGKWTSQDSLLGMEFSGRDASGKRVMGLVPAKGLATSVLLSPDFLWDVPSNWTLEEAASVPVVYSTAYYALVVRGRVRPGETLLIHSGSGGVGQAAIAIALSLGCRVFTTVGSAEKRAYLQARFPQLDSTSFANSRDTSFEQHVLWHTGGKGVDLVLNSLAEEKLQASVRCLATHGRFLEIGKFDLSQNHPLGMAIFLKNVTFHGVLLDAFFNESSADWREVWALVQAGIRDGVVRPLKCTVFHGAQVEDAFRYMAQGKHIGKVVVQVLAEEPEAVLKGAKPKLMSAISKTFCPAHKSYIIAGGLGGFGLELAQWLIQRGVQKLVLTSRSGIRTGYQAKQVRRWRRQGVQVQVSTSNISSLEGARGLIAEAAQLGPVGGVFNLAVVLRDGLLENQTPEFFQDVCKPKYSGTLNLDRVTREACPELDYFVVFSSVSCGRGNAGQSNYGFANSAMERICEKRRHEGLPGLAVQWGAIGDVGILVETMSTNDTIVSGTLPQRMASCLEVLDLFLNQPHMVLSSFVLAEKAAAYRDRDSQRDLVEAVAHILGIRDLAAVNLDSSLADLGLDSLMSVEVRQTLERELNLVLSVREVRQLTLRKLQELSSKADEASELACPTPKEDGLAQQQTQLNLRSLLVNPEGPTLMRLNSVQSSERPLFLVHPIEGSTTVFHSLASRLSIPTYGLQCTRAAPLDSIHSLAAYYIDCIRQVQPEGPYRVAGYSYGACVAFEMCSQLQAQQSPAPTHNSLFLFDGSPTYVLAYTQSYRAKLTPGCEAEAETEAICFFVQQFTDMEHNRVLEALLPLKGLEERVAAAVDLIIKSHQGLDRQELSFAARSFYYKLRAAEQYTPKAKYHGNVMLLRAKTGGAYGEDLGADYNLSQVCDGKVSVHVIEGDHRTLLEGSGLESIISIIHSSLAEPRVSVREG

Fatty acid synthase [3] = biological target: T1, Fatty acid synthase; assay: FAS thioesterase domain inhibitors, dose response, biochemical, kinetic fluorescence intensity (AID 624326); type: functional;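 further: rate of fluorescence rise from hydrolysis of a fluorogenic O-methyl fluorescein ester substrate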
[4] = intracellular Trypanosoma cruzi inhibitors in host cells – cell-based, plate reader, cherry-pick samples, set 3, dose response (AID 651818); type: functional;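 further: compounds incubated with infected cells for about four days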
[5] = inhibitors of clade B AD8 Env fusion, dose response, cell-based, cherry-pick (AID 652062); type: functional;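 further: luciferase signal from cell-cell fusion driven by HIV-1 clade B AD8 Env; potency is for inhibitors of fusion seen as a drop in luminescence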
[6] = growth suppression of PTEN-null colon cells, dose response, cell-based, HCT116 PTEN knockout (AID 1047); type: functional;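 further: HCT116 colon tumor cells with PTEN knocked out; cells exposed to compound for 60 hours before readout; potency for loss of cell viability measured by luminescence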
[7] = growth suppression of beta-catenin-knockout colon cells, dose response, cell-based, HCT116, human colon tumor (AID 1045); type: functional;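 further: HCT116 colon tumor cells with beta catenin knocked out; cells exposed to compound for 60 hours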

Row | IC50 (Fatty acid synthase [2]) | IC50 (Fatty acid synthase [3]) | SMILES | AC50 [4] | further results
1 | – | – | COc1ccc2c3c([nH]c2c1)[C@H](CO)N(Cc1cc(F)ccc1F)CC31CCN(C(C)=O)CC1 | – | AC50 [1]: 3.39 µM (active)
2 | 4.06 µM (active) | 4.54 µM (active) | CC(NC(=O)Cn1cc([N+](=O)[O-])cn1)c1ccc(C(C)(C)C)cc1 (stereo not given) | – | –
3 | – | – | COc1ccc2c3c([nH]c2c1)[C@@H](CO)N(Cc1ccccc1F)CC31CN(C(=O)C2CCCC2)C1 | – | AC50 [1]: 6.64 µM (active)
4 | 11.2 µM (active) | 4.48 µM (active) | CC(C)(C)c1ccc(OCCC(=O)OCC(=O)N2c3ccccc3NC(=O)C2(C)C)cc1 | – | –
5 | – | – | COc1ccc(S(=O)(=O)N(C)C[C@H]2Oc3ccc(NS(=O)(=O)c4ccc(F)cc4)cc3CC(=O)N([C@H](C)CO)C[C@H]2C)cc1 | 8.25 µM (active) | –
6 | 5.96 µM (active) | 6.45 µM (active) | COc1ccccc1C(=O)COC(=O)c1cc([N+](=O)[O-])ccc1N1CCOCC1 | – | –
7 | – | – | C[C@@H]1CCCCO[C@@H](CN(C)C(=O)Nc2ccc(C(F)(F)F)cc2)[C@@H](C)CN([C@H](C)CO)C(=O)c2cc(NC(=O)Nc3ccc(C(F)(F)F)cc3)ccc2O1 | 3.39 µM (active) | –
8 | – | – | C[C@H]1CN([C@@H](C)CO)C(=O)c2cccc(NC(=O)NC3CCCCC3)c2O[C@H]1CN(C)Cc1ccc(C(=O)Nc2ccccc2N)cc1 | 2.74 µM (active) | –
9 | – | – | C[C@@H]1CN([C@H](C)CO)C(=O)c2c(c3ccccc3n2C)-c2ccccc2CO[C@H]1CN(C)Cc1ccc(Oc2ccccc2)cc1 | – | AC50 [1]: 3.03 µM (active)
10 | – | – | C[C@@H]1CN([C@H](C)CO)C(=O)Cc2cc(NC(=O)Nc3cccc4ccccc34)ccc2O[C@@H]1CN(C)Cc1ccc(Cl)c(Cl)c1 | 2.53 µM (active) | –
11 | – | – | CO[C@H]1CN(C)C(=O)c2ccc(NC(=O)c3nc4ccccc4s3)cc2OC[C@H](C)N(Cc2ccncc2)C[C@@H]1C | – | AC50 [1]: 5.3 µM (active)
12 | – | – | COc1ccc(NC(=O)C2(C)CCN2Cc2ccccc2OC(F)F)cc1OC (stereo not given) | – | AC50 [5]: 55.5 µM (active)
13 | 10.2 µM (active) | 11.6 µM (active) | O=C(/C=C/c1cccc([N+](=O)[O-])c1)NCCSCc1ccc(Cl)cc1 | – | –
14 | – | – | O=C(N/N=C/c1cc(I)cc(I)c1O)c1ccccn1 | 1.12 µM (active) | –
15 | – | – | COc1ccc2c3c(n(C)c2c1)[C@H](CO)N(C(=O)Nc1cccc(F)c1)CC31CN(C)C1 | – | AC50 [1]: 5.83 µM (active)
16 | 2.57 µM (active) | 2.53 µM (active) | Cc1ccc2c(c1)C(c1ccccc1)N(C(=O)c1cccc([N+](=O)[O-])c1)CC(=O)N2 (stereo not given) | – | –
17 | 9.92 µM (active) | 12.4 µM (active) | COc1cccc(NC(C)C(=O)Nc2cc([N+](=O)[O-])ccc2Cl)c1 (stereo not given) | – | –
18 | – | – | C[C@@H]1CN([C@@H](C)CO)C(=O)c2cccc(NC(=O)CCCCCC(=O)Nc3ccccc3N)c2O[C@@H]1CN(C)S(=O)(=O)c1ccc(Cl)cc1 | 3.26 µM (active) | –
19 | – | – | CCCNC(=O)N1CC(=O)N2[C@@H](CO)[C@@H](c3ccc(C#Cc4cccc(OC)c4)cc3)[C@@H]2C1 | – | AC50 [1]: 17 µM (active)
20 | 9.17 µM (active) | 8.93 µM (active) | COc1ccc(C2=NN(C(=O)CSc3nc(=O)n4ccc(C)cc4n3)C(c3ccc(C)cc3)C2)cc1 (stereo not given) | – | –
21 | 7.45 µM (active) | 11.5 µM (active) | CCO[C@H]1OC(C(=O)NCc2ccccc2)=C[C@@H](C2CCCCC2)[C@@H]1CCCO | – | –
22 | – | – | C[C@@H]1CN([C@H](C)CO)C(=O)Cc2cc(NS(=O)(=O)c3ccc(F)cc3)ccc2O[C@H]1CN(C)Cc1ccc(C(=O)Nc2ccccc2N)cc1 | 3.17 µM (active) | –
23 | – | – | C[C@H]1CN([C@@H](C)CO)C(=O)c2cc(N(C)C)ccc2O[C@@H]1CN(C)C(=O)Nc1ccc(C(F)(F)F)cc1 | 5.64 µM (active) | –

Row | SMILES | IC50 (Fatty acid synthase [2]) | IC50 (Fatty acid synthase [3]) | AC50 [4] | further results
24 | COc1ccccc1/C=C(\NC(=O)c1ccc(OC)c(OC)c1)C(=O)Nc1cc([N+](=O)[O-])ccc1C | 2.16 µM (active) | 3.48 µM (active) | – | EC50 [6]: 43.6 µM (active); EC50 [7]: 44.4 µM (active)
